From patent publication US6162920A, “Taxane derivatives having a pyridyl substituted C13 side chain, their preparation and their use as anti-tumor agents” (Schering Aktiensgesellschaft, priority 1996, dated 2000)
Read-outs that look alike come from different tables or passages of the source.

Experiments:
tubulin = assay: photometric measurement of polymerisation of tubulin and depolymerisation of microtubules (350 nm); format: biochemical, bovine; conditions: photometry, compared with taxol/control; for effect on polymerisation of tubulin: 37° C., tubulin 2 mg protein/ml; for stabilisation of microtubules (effect on depolymerisation): depolymerisation initiated by reducing temperature to 15° C.
Description: Bovine brains (each 330 g) are removed from freshly opened cows' heads and are transported in ice-cooled PM4-M buffer. Each brain is freed of the meninges and also of any thrombi and is homogenised with sufficient PM4M buffer in a cooling chamber. The homogenised material from 2 bovine brains is made up to a total volume of 1.0 liter with a total of 500 ml of buffer and is subjected to a first centrifugation (GSA rotor, 15 minutes, 4° C., 6500 g). The supernatant is freed of the sebaceous skin on the surface, filtered over 4 layers of thin muslin, transferred into counter-balanced centrifuge tubes (420 ml) and centrifuged again (Ti 45 rotor, 96000 g, 75 minutes, 4° C.). The supernatant is removed by pipette through the pellet and filtered over 6 layers of thin muslin, and a 50 mM GTP solution in 0.001M bicarbonate/PBS is added to obtain a final concentration of 1 mM. A first polymerisation is carried out in counter-balanced centrifuge tubes for 45 minutes in a water bath warmed to 37° C. The microtubules that have formed are removed by centrifugation (Ti 45 rotor, 27° C., 96000 g, 60 minutes), the supernatant is carefully removed by pipette and the very soft, opalescent pellet is carefully separated from the wall with a spatula. 40 ml of cold PM buffer are then added to the pellet, followed by homogenisation using a small glass mortar and incubation overnight (from 12 to 16 hours) on ice in counter-balanced centrifuge tubes in a cooling chamber. The depolymerisation product is removed by centrifugation in the Ti 60 rotor (4° C.; 96000 g, 60 minutes) and the supernatant is diluted with PM8-M buffer to 1:1, incubated in counter-balanced centrifuge tubes at 37° C. for 45 minutes and centrifuged again (Ti 45 rotor, 27° C., 96000 g, 60 minutes). The supernatant is carefully removed by pipette and the very soft opalescent pellet is taken up in 20 ml of cold PM buffer, homogenised carefully using a small glass mortar and incubated on ice for 30 minutes. The renewed centrifugation (Ti 60 rotor, 4° C., 96000 g, 60 minutes) gives tubulin, the protein content of which is determined according to Pearce or according to a photometric measurement at 280 nm. In the protein determination, dilutions of isolated material to PM buffer of 1:10, 1:20 and 1:40 are used. The PM buffer has own extinction and is deducted as a zero value from the determined protein content. The isolated material is diluted with PM buffer to the intended protein concentration (2 mg/ml).
The measurement of the polymerisation of tubulin and the depolymerisation of microtubules is carried out by photometry. Before the measurement, the tubulin prepared in accordance with Application Example 1 is thawed and degassed for 15 minutes. The photometer is set to a wavelength of 350 nm. 3 μl of solvent/sample, 6 μl of GTP ([…] final.) and 291 μl of tubulin (2 mg protein/ml) are pipetted into the dry and cleaned dishes (10 mm). The sample is carefully stirred (without causing air bubbles), immediately placed in dish carriages and the measuring operation is started at 37° C. Once the polymerisation maximum has been reached (solvent control and taxol 1E-5 mol/l after 20 minutes), the depolymerisation is initiated by reducing the temperature to 15° C. The measuring operation is stopped at the end of the depolymerisation and the course of the change in absorption is represented in graph form as a function of time and temperature (see FIG. 1).

[1] = system: MDA MB 435 mammary carcinoma cells; assay: anti-proliferative effect on tumour cell line, MTT method; format: cell-based; conditions: for IC50: Homo sapiens; for inhibiting (anti-proliferative) activity compared with taxol, in words: MDA MB 435 cells, MTT, comparison with taxol
Description: The addition of the substance in several concentrations is carried out on day 1. The anti-proliferative effect is determined on day 3 using the MTT method. The IC50 values are determined therefrom.

[2] = MDA MB 435 mammary carcinoma cells, 5000 cells/well, substance added day 1, determined day 3, MTT, read-out: MDA-MB 435 cells IC50

SMILES | effect on polymerisation of tubulin (tubulin) | stabilisation of microtubules (effect on depolymerisation) (tubulin) | IC50 [1, 2] [nM] | inhibiting (anti-proliferative) activity compared with taxol, in words [1] | IC50 ([1]; MDA-MB-435, read-out: MDA-MB 435 cells IC50) [nM]
COC(=O)N[C@@H](c1ccncc1)[C@@H](O)C(=O)O[C@H]1C[C@@]2(O)[C@@H](OC(=O)c3ccccc3)[C@@H]3[C@]4(OC(C)=O)CO[C@@H]4C[C@H](O)[C@@]3(C)C(=O)[C@H](OC(C)=O)C(=C1C)C2(C)C [Compound 1, 3'-desphenyl-3'-(4-pyridyl)-3'-N-debenzoyl-3'-N-methoxycarbonyl-taxol] | inhibits the polymerisation | stabilises the microtubules that have formed distinctly better than taxol | 2 | activity similar to that of taxol | 
COC(=O)N[C@@H](c1ccncc1)[C@@H](O)C(=O)O[C@H]1C[C@@]2(O)[C@@H](OC(=O)c3ccccc3)[C@@H]3[C@]4(OC(C)=O)CO[C@@H]4C[C@H](O)[C@@]3(C)C(=O)[C@H](O)C(=C1C)C2(C)C [Compound 4, 3'-Desphenyl-3'-(4-pyridyl)-3'-N-debenzoyl-3'-N-methoxycarbonyl-10-desacetyl-taxol] | does not differ from taxol in respect of the polymerisation behaviour of tubulin | stabilise the microtubules that have formed substantially better than taxol | 60 |  | 
COC(=O)N[C@@H](c1ccncc1)[C@@H](O)C(=O)O[C@H]1C[C@@]2(O)[C@@H](O)[C@@H]3[C@]4(OC(C)=O)CO[C@@H]4C[C@H](O)[C@@]3(C)C(=O)[C@H](OC(C)=O)C(=C1C)C2(C)C [Compound 3, 3'-desphenyl-3'-(4-pyridyl)-2,3'-N-bisdebenzoyl-3'-N-methoxycarbonyl-taxol] | much more pronounced acceleration of the polymerisation of tubulin | stabilises the microtubules that have formed better than taxol | 8000 |  | 
COC(=O)N[C@@H](c1ccncc1)[C@@H](O)C(=O)O[C@H]1C[C@@]2(O)[C@@H](OC(=O)c3ccccc3)[C@@H]3[C@]4(OC(C)=O)CO[C@@H]4C[C@@H](O)[C@@]3(C)C(=O)[C@H](OC(C)=O)C(=C1C)C2(C)C [Compound 2, 3'-desphenyl-3'-(4-pyridyl)-3'-N-debenzoyl-3'-N-methoxycarbonyl-7-epi-taxol] | much more pronounced acceleration of the polymerisation of tubulin | stabilises the microtubules that have formed very much better than taxol | 0.8 | significantly improved inhibiting activity compared with taxol | 
CC(=O)O[C@H]1C(=O)[C@@]2(C)[C@H]([C@H](OC(=O)c3ccccc3)[C@]3(O)C[C@H](OC(=O)[C@H](O)[C@@H](NC(=O)c4ccccc4)c4ccccc4)C(C)=C1C3(C)C)[C@]1(OC(C)=O)CO[C@@H]1C[C@@H]2O [Taxol, reference compound] | speeds up the polymerisation of tubulin in comparison with the control | inhibits depolymerisation |  |  | 3
